{
  "source": "paper PMC11092195",
  "about": "“Selective Detection of Active Extracellular Granzyme A by Using a Novel Fluorescent Immunoprobe with Application to Inflammatory Diseases” (ACS Pharmacology & Translational Science, 2024)",
  "biological_target": "T1, hGzmK (human GzmK) (Homo sapiens, UniProt P49863)",
  "T1 construct": "commercial, Enzo Life Sciences",
  "T1 sequence (P49863 27-264)": "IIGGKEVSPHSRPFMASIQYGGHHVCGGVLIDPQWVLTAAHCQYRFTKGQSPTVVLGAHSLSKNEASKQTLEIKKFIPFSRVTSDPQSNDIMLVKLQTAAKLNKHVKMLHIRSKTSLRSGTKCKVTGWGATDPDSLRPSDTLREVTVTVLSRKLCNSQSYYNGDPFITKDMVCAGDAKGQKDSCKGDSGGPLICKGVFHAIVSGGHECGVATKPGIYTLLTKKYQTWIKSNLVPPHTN",
  "assay": "thioester hydrolysis with DTNB, used to normalise enzyme units",
  "format": "biochemical",
  "conditions": "Tris-HCl pH 8.5, 37 °C",
  "note": "Counter-ions that a name gives are not always drawn.",
  "data": [
    {"smiles": "NCCCC[C@H](NC(=O)OCc1ccccc1)C(=O)SCc1ccccc1", "note": "[Nα-CBZ-L-Lysine thiobenzyl ester hydrochloride]", "values": [
      {"measurement": "thioester hydrolysis with DTNB, used to normalise enzyme units", "value": "activity of the different trypsin-like proteases was equated using a common substrate"}
    ]}
  ]
}
